The text below walks through data of PubChem BioAssay (NCI).

The structures appear in SMILES notation.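 Exposure lasted 48 hours, with cells grown in 96-well plates and compounds tested at five concentrations. TGI is the concentration that stops growth completely.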

Among the test systems are SNB-75 CNS; SF-539 CNS; UACC-257 melanoma; NCI-H23 lung; HOP-62 NSCLC; TK-10 renal; T-47D breast; MCF7 breast; SN12C renal; 786-0 renal.
Holding throughout (experiment): NCI tumour cell line growth inhibition, 48 h

As for `NCCCNCCCCN1CC1`, the TGI was 4.3 µM in the assay on SNB-75 CNS; 3.4 µM in the assay with SF-539 CNS; 4.71 µM in the assay with UACC-257 melanoma; greater than 28 µM in the assay with NCI-H23 lung; 14.1 µM with HOP-62 NSCLC; greater than 23.2 µM in the assay on TK-10 renal. Besides, the figures for the TGI in the assay with T-47D breast and with MCF7 breast were 1.02 µM and greater than 100 µM, respectively.

Take `CCOC(=O)C(NC(=O)OC(C)(C)C)C(=O)OCC`: the TGI in the assay with SNB-75 CNS, in the assay with UACC-257 melanoma, in the assay with NCI-H23 lung, with HOP-62 NSCLC, in the assay with TK-10 renal and with T-47D breast was greater than 100 µM throughout. In addition, the TGI in the assay with MCF7 breast, with SN12C renal and with 786-0 renal was greater than 100 µM throughout.

As to `O=C1C(=Cc2ccc(Cl)c(Cl)c2)C([O-])=C([P+](c2ccccc2)(c2ccccc2)c2ccccc2)C([O-])=C1[P+](c1ccccc1)(c1ccccc1)c1ccccc1`, the TGI with SNB-75 CNS was 15.9 µM; in the assay with SF-539 CNS it was 5.17 µM; in the assay with UACC-257 melanoma, 5.8 µM; in the assay with NCI-H23 lung it was 10 µM; with HOP-62 NSCLC it was 7.8 µM; with TK-10 renal, 5.6 µM. Moreover, the TGI was determined as 15.7 µM in the assay on T-47D breast, 11.2 µM in the assay with MCF7 breast, 6.47 µM in the assay on SN12C renal and 4.18 µM in the assay with 786-0 renal.

In the case of `CN(Cc1cc(Cl)c(Cl)cc1NC(=O)CN)[C@H]1CCCC[C@@H]1N1CCCC1`, the TGI was greater than 100 µM in the assay with SNB-75 CNS; 31.7 µM in the assay on UACC-257 melanoma; greater than 100 µM in the assay with NCI-H23 lung; greater than 100 µM with HOP-62 NSCLC; greater than 100 µM in the assay with TK-10 renal; greater than 100 µM in the assay with T-47D breast. Moreover, the values for the TGI in the assay on MCF7 breast, with SN12C renal and in the assay with 786-0 renal were greater than 100 µM, greater than 100 µM and 33 µM, respectively.

Regarding `CC(=O)/C(=C/N1CCNC1=S)C(=O)Nc1ccccc1C`, the TGI with SNB-75 CNS, in the assay with SF-539 CNS, in the assay on UACC-257 melanoma, in the assay on NCI-H23 lung, in the assay with HOP-62 NSCLC and in the assay on TK-10 renal was greater than 100 µM throughout. Further, the TGI with T-47D breast, in the assay with MCF7 breast, with SN12C renal and with 786-0 renal was greater than 100 µM each time.

Regarding `NC1CC=C(COC(=O)C(O)(c2ccccc2)C2CC2)CC1` (centres undefined), the TGI with SNB-75 CNS, in the assay on SF-539 CNS, in the assay with UACC-257 melanoma, in the assay with NCI-H23 lung, in the assay with HOP-62 NSCLC and in the assay with TK-10 renal was greater than 100 µM each time. Besides, the TGI in the assay with T-47D breast, in the assay with MCF7 breast, with SN12C renal and in the assay on 786-0 renal was greater than 100 µM throughout.

As for `S=c1[nH]c2ccc(I)cc2c(=S)n1Cc1ccccc1`, the TGI in the assay with SNB-75 CNS was found to be 13.7 µM; in the assay on SF-539 CNS, 37.2 µM; in the assay with UACC-257 melanoma, 7.34 µM; with NCI-H23 lung, 9.61 µM; with HOP-62 NSCLC it was 22.8 µM; in the assay on TK-10 renal it was 30.8 µM. In addition, the TGI with T-47D breast is 5.5 µM; in the assay with MCF7 breast, greater than 100 µM; in the assay on SN12C renal it was 13.4 µM; in the assay on 786-0 renal, 21.4 µM.

Consider `COc1ccc(N2NC(c3ccccc3)(c3ccccc3)C(C)C2=O)cc1` (centres undefined), for which the TGI with SNB-75 CNS, in the assay with SF-539 CNS, with UACC-257 melanoma, with NCI-H23 lung, in the assay with HOP-62 NSCLC and with TK-10 renal was greater than 100 µM throughout. The TGI with T-47D breast, in the assay on MCF7 breast and with SN12C renal was greater than 100 µM throughout.

Take `CCCCCCCCCCCCCC(=O)N(CCCCCCCCC)CC(O)C(O)C(OC1OC(CO)C(O)C(O)C1O)C(O)CO` (centres undefined): the TGI in the assay with SNB-75 CNS was determined as 37.3 µM; in the assay on SF-539 CNS, 51.3 µM; in the assay on UACC-257 melanoma, 32.1 µM; in the assay on NCI-H23 lung it was 41.5 µM; with HOP-62 NSCLC it was 47.4 µM; with TK-10 renal, 33.7 µM. Moreover, the TGI was 39.7 µM with T-47D breast, greater than 100 µM with MCF7 breast, 37.1 µM with SN12C renal and 32 µM with 786-0 renal.

Turning to `CC1=C(C)C(=O)C(C2=CC(=O)C=CC2=O)=C(C2=CC(=O)C=CC2=O)C1=O`, the TGI in the assay with SNB-75 CNS is greater than 100 µM; with SF-539 CNS, 51.7 µM; in the assay on UACC-257 melanoma it was greater than 100 µM; in the assay with NCI-H23 lung, greater than 100 µM; in the assay on HOP-62 NSCLC, greater than 100 µM; in the assay on TK-10 renal, greater than 100 µM. The TGI in the assay on T-47D breast was 77.5 µM; with MCF7 breast, greater than 81.4 µM; in the assay on SN12C renal it was greater than 71.8 µM; in the assay with 786-0 renal, greater than 100 µM.

For the molecule `O=c1[nH]c(=S)c2cc3c(=S)[nH]c(=O)n(CCO)c3nc2n1CCO`, the TGI in the assay with SNB-75 CNS, in the assay with SF-539 CNS, in the assay on UACC-257 melanoma, in the assay on NCI-H23 lung, in the assay with HOP-62 NSCLC and in the assay on TK-10 renal was greater than 100 µM in each case. Also, the TGI in the assay with T-47D breast, in the assay on MCF7 breast, in the assay with SN12C renal and in the assay with 786-0 renal was greater than 100 µM throughout.

For the molecule `CC(=O)Nc1ccccc1NC1CC(C)N(c2ccccc2)N1C(C)=O` (centres undefined), the TGI in the assay with SNB-75 CNS, in the assay with UACC-257 melanoma, in the assay with NCI-H23 lung, in the assay on HOP-62 NSCLC, with TK-10 renal and in the assay on T-47D breast was greater than 10 µM each time. In addition, the TGI in the assay with MCF7 breast, in the assay on SN12C renal and with 786-0 renal was greater than 10 µM throughout.

Turning to `CCOC(=O)/C=C(\C(=O)OCC)n1ccc(=O)[nH]c1=O`, the TGI in the assay on SNB-75 CNS came out at 35.3 µM; with SF-539 CNS, 75.1 µM; in the assay with UACC-257 melanoma, 12.3 µM; with NCI-H23 lung, 32.4 µM; in the assay on HOP-62 NSCLC it was 53.6 µM; in the assay on TK-10 renal, 26.2 µM. Also, the TGI in the assay on T-47D breast turned out to be 33.1 µM; with MCF7 breast, 23.9 µM; in the assay with SN12C renal it was 26.4 µM; with 786-0 renal, 18.5 µM.

In the case of `O=[N+]([O-])C(Cl)=C/C(=C(\Cl)SCc1ccccc1)[N+](=O)[O-]`, the TGI was greater than 100 µM in the assay on SNB-75 CNS; 45 µM in the assay on SF-539 CNS; 79.7 µM in the assay with UACC-257 melanoma; 69.6 µM in the assay with NCI-H23 lung; 36.2 µM in the assay on HOP-62 NSCLC; 48.3 µM in the assay on TK-10 renal. For the same molecule, the TGI was 40.2 µM in the assay with T-47D breast, greater than 100 µM in the assay with MCF7 breast, 45.3 µM with SN12C renal and 71.2 µM in the assay on 786-0 renal.
